We go through 9 compounds from patent publication US7638506B2, “Granular agrochemical composition” (Kumiai Chemical Industry Co., Ltd., priority 2002, dated 2009).

A short description of the first series: pKa of the acidic agrochemically active ingredient.
Conditions: not given
In kind it is physicochemical. An excerpt: In the case of using the above-described acidic agrochemically active ingredient having the prescribed pKa, the pKa of the ingredient can be measured by, for example, a method described in “Jikken Kagaku Koza 5, (Thermal measurement and Equilibrium)”, Maruzene, p. 469-474, Jan. 20 (1958) and the like.
The compound `COCc1cccc(C(O)c2nc(OC)cc(OC)n2)c1NS(=O)(=O)C(F)F` (stereo not drawn) [Compound A, 2-[(4,6-dimethoxypyrimidin-2-yl)hydroxymethyl]-6-methoxymethyl-N-difuloromethanesulfonylanilide] showed a pKa of 5.75. `CCc1cccc(C(O)c2nc(OC)cc(OC)n2)c1NS(=O)(=O)C(F)F` (stereo not drawn) [Compound B, 2-[(4,6-dimethoxypyrimidin-2-yl)hydroxymethyl]-6-ethyl-N-difuloromethanesulfonylanilide]: the pKa is given as 6.17.

The compound `CCOP(=O)(Sc1ccccc1)Sc1ccccc1` [EDDP] showed a pKa of 10.5. Still for that read-out and setting: as for `CNC(=O)Oc1ccccc1OC(C)C` [PHC], the figure is 11.5. Take `COC(=O)c1ccccc1CS(=O)(=O)NC(=O)Nc1nc(OC)cc(OC)n1` [bensulfuron-methyl, methyl α-(4,6-dimethoxypyrimidin-2-ylcarbamoylsulfamoyl)-o-toluate]: the pKa was found to be 5.03. `Cc1cccc2sc3nncn3c12` [tricyclazole, 5-methyl-1,2,4-triazolo[3,4-b]benzothiazole] had a pKa of 1.6.

Still in this series, the particulars now being: read-out: pKa.
In the case of `COc1cc(OC)nc(NC(=O)NS(=O)(=O)c2c(-c3nnn(C)n3)cnn2C)n1` [azimsulfuron, 1-(4,6-dimethoxypyrimidin-2-yl)-3-[1-methyl-4-(2-methyl-2H-tetrazol-5-yl)pyrazol-5-ylsulfonyl]urea], the pKa was found to be 3.6. Same read-out and setting: next, `COc1cc(OC)nc(NC(=O)NS(=O)(=O)c2c(Cl)nc3ccccn23)n1` [imazosulfuron, 1-(2-chloroimidazo[1,2-a]pyridin-3-ylsulfonyl)-3-(4,6-dimethoxypyrimidin-2-yl)urea]: 4; `CCOC(=O)c1cnn(C)c1S(=O)(=O)NC(=O)Nc1nc(OC)cc(OC)n1` [pyrazosulfuron-ethyl, ethyl 5-(4,6-dimethoxypyrimidin-2-ylcarbamoylsulfamoyl)-1-methylpyrazole-4-carboxylate]: 3.91.
